# Measurements taken from publication PMC2248166, “Quantitative peptide binding motifs for 19 human and mouse MHC class I molecules derived using positional scanning combinatorial peptide libraries” (Immunome Research, 2008).
# Assays:
# HLA A*3001 = HLA A*3001 (Homo sapiens, UniProt P04439, D140H/D185E/E176W/F33S/G80R/H175R/K168Q/R138E/R41S); test: biochemical; assay type: binding
# HLA B*0801 = HLA B*0801 (Homo sapiens, UniProt P01889, A93T/A95T/D138N/E176V/E187T/K202T/Q94N/R180D/S35A/V36M/Y33D/Y91F); test: biochemical; assay type: binding
# HLA B*0702 = HLA B*0702 (Homo sapiens, UniProt P01889); assay type: binding; conditions: positional scanning combinatorial 9-mer library; normalized to 1.0 for the best residue at each position
# HLA A*3201 = HLA A*3201 (Homo sapiens, UniProt P04439, A270S/D101S/D185E/E176V/E277Q/F133L/G103R/G107R/G231S/H175R/I121M/I218V/I322F/K168Q/L105A/L300P/L318F/M331R/P208A/P217A/Q94H/R106L/R138Q/S129P/T104I/T323A/T345S/V100E/V321M/V358M); test: biochemical; assay type: binding
# HLA B*5101 = HLA B*5101 (Homo sapiens, UniProt P01889, A329T/A93T/A95T/C349S/D138N/D201E/D98Y/E187L/E204Q/E69T/G107R/I218V/K202T/L105A/L119W/N104I/Q94N/R106L/R155S/R180L/S101N/S121T/S35A/S48A/V306I/V36M/Y195H/Y91F); assay type: binding
# HLA A*0201 = HLA A*0201 (Homo sapiens, UniProt P04439, D140Y/D185E/D98H/E176V/E277Q/G131W/G231S/I119V/I121R/I166T/I218V/L300P/L318F/N151K/N90K/P208A/P217A/Q86G/Q94H/R138H/R169H/T345S); conditions: positional scanning combinatorial 9-mer library; normalized to 1.0 for the best residue at each position
# H-2 D^b = H-2 D^b (Mus musculus, UniProt P01899); assay type: binding
# HLA B*3501 = HLA B*3501 (Homo sapiens, UniProt P01889, A329T/A93T/A95T/C349S/D201E/D98Y/E176V/E187L/E204Q/E69T/I218V/K202T/L119I/Q94N/R155S/R180L/S121R/S35A/S48A/T118I/V127L/V306I/V36M/Y140S/Y91F); assay type: binding
# H-2 D^d = H-2 D^d (Mus musculus, UniProt P01900); assay type: binding
# HLA B*5301 = HLA B*5301 (Homo sapiens, UniProt P01889, A329T/A93T/A95T/C349S/D201E/D98Y/E176V/E187L/E204Q/E69T/G107R/I218V/K202T/L105A/L119I/N104I/Q94N/R106L/R155S/R180L/S101N/S121R/S35A/S48A/T118I/V127L/V306I/V36M/Y140S/Y91F); assay type: binding
# HLA B*1501 = HLA B*1501 (Homo sapiens, UniProt P01889, A329T/A93T/A95T/C349S/D201E/D98Y/E187L/E204Q/E69M/E70A/K202T/N87E/Q94N/R155S/R180W/S121R/S35A/S48A/V306I/V36M/Y140S/Y91S); test: biochemical; assay type: binding
# HLA B*2705 = HLA B*2705 (Homo sapiens, UniProt P01889, D138H/D201E/E176V/E204Q/G107R/H137Y/K202T/N104T/N87E/Q56L/Q94K/R106L/R155S/R180L/S101D/S121N/S48T/Y140D/Y33H/Y91C); assay type: binding; conditions: positional scanning combinatorial 9-mer library; normalized to 1.0 for the best residue at each position
# H-2 K^k = H-2 K^k (Mus musculus, UniProt P04223); assay type: binding
# HLA A*6802 = HLA A*6802 (Homo sapiens, UniProt P04439, A269V/D140Y/D185E/E176V/E277Q/E87N/F33Y/G231S/I121R/I166T/I218V/L180W/L300P/L318F/N151K/P208A/P217A/Q86R/R138H/R169H/S129P/T345S/V36M); assay type: binding
# HLA B*5401 = HLA B*5401 (Homo sapiens, UniProt P01889, A329T/C349S/D138N/D201E/E176V/E187T/E204Q/E69G/I76V/K202T/L119W/R155S/R180L/S121T/S35A/S48A/V127L/V306I/V36M/Y140L); assay type: binding
# HLA B*5801 = HLA B*5801 (Homo sapiens, UniProt P01889, A329T/C349S/D201E/D98Y/E176V/E187L/E204Q/E69T/G107R/I218V/I90N/K202T/L105A/L119I/N104I/N87E/Q89R/Q94S/R106L/R155S/R180L/R86G/S101N/S121R/S35A/S48A/T118I/V127L/V306I/V36M/Y140S/Y91M); assay type: binding
# HLA B*1503 = HLA B*1503 (Homo sapiens, UniProt P01889, A329T/A93T/A95T/C349S/D201E/D98Y/E187L/E204Q/K202T/N87E/Q94N/R155S/R180L/S121R/S35A/V306I/V36M/Y140S/Y91S); test: biochemical; assay type: binding
# HLA B*5802 = HLA B*5802 (Homo sapiens, UniProt P01889, A329T/C349S/D201E/D98Y/E176V/E187L/E204Q/E69T/G107R/I218V/I90N/K202T/L105A/N104I/N87E/Q89R/Q94S/R106L/R155S/R180L/R86G/S101N/S121W/S35A/S48A/V127L/V306I/V36M/Y140S/Y91M); assay type: binding
# Sequence of H-2 K^k (P01887 21-119): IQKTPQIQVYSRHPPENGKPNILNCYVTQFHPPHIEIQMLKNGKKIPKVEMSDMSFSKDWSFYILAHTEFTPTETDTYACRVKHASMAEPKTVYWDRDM
# Sequence of H-2 K^k (P04223 22-369): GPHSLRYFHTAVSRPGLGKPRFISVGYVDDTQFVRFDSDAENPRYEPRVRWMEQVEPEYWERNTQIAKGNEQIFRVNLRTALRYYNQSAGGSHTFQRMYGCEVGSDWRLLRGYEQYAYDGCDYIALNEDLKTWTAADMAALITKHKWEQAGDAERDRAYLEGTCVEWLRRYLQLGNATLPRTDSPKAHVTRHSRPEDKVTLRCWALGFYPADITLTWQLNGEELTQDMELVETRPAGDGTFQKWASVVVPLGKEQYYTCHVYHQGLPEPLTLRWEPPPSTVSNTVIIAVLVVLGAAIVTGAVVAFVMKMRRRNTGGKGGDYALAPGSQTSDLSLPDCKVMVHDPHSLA
# Sequence of H-2 D^b (P01887 21-119): as the sequence (P01887 21-119) above
# Sequence of H-2 D^b (P01899 25-362): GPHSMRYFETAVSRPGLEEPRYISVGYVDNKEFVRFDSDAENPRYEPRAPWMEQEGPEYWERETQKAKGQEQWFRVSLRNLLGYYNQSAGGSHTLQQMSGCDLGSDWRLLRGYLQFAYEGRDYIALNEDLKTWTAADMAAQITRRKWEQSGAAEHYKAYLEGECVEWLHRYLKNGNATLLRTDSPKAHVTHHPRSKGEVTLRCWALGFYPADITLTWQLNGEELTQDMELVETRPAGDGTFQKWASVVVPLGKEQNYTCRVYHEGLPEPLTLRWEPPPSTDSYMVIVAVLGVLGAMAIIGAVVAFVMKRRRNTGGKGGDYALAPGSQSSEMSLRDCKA
# Sequence of H-2 D^d (P01900 whole entry, looked up): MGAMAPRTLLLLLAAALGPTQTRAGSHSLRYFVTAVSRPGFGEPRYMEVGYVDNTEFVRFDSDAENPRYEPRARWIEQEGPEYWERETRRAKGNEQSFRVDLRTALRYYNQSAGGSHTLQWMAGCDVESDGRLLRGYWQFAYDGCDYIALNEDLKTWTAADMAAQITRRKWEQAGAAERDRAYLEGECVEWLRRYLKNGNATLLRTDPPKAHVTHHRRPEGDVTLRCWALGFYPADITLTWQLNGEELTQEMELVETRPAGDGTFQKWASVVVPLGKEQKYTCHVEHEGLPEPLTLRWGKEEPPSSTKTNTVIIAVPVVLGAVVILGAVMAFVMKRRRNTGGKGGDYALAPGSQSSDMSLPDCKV
sequence,measurement,setting,value
XLXXXXXXX [3064.0030],"Normalized average relative binding affinity (ARB), HLA A*3001",HLA A*3001,0.16
same,"Normalized average relative binding affinity (ARB), HLA B*0801",HLA B*0801,0.72
same,"Normalized average relative binding affinity (ARB), HLA B*0702",HLA B*0702,0.016
same,"Normalized average relative binding affinity (ARB), HLA A*3201",HLA A*3201,0.29
same,"Normalized average relative binding affinity (ARB), HLA B*5101",HLA B*5101,0.022
same,"Normalized average relative binding affinity (ARB), HLA A*0201",HLA A*0201,1.0
same,"Normalized average relative binding affinity (ARB), H-2 Db",H-2 D^b,0.18
same,"Normalized average relative binding affinity (ARB), HLA B*3501",HLA B*3501,0.035
same,"Normalized average relative binding affinity (ARB), H-2 Dd",H-2 D^d,0.035
same,"Normalized average relative binding affinity (ARB), HLA B*5301",HLA B*5301,0.035
same,"Normalized average relative binding affinity (ARB), HLA B*1501",HLA B*1501,0.52
same,"Normalized average relative binding affinity (ARB), HLA B*2705",HLA B*2705,0.0053
same,"Normalized average relative binding affinity (ARB), H-2 Kk",H-2 K^k,0.062
same,"Normalized average relative binding affinity (ARB), HLA A*6802",HLA A*6802,0.097
same,"Normalized average relative binding affinity (ARB), HLA B*5401",HLA B*5401,0.0037
same,"Normalized average relative binding affinity (ARB), HLA B*5801",HLA B*5801,0.043
same,"Normalized average relative binding affinity (ARB), HLA B*1503",HLA B*1503,0.18
same,"Normalized average relative binding affinity (ARB), HLA B*5802",HLA B*5802,0.13
XMXXXXXXX [3064.0031],"Normalized average relative binding affinity (ARB), HLA A*3001",HLA A*3001,0.70
same,"Normalized average relative binding affinity (ARB), HLA B*0801",HLA B*0801,0.70
same,"Normalized average relative binding affinity (ARB), HLA B*0702",HLA B*0702,0.0028
same,"Normalized average relative binding affinity (ARB), HLA A*3201",HLA A*3201,0.63
same,"Normalized average relative binding affinity (ARB), HLA B*5101",HLA B*5101,0.039
same,"Normalized average relative binding affinity (ARB), HLA A*0201",HLA A*0201,0.19
same,"Normalized average relative binding affinity (ARB), H-2 Db",H-2 D^b,0.73
same,"Normalized average relative binding affinity (ARB), HLA B*3501",HLA B*3501,0.035
same,"Normalized average relative binding affinity (ARB), H-2 Dd",H-2 D^d,0.018
same,"Normalized average relative binding affinity (ARB), HLA B*5301",HLA B*5301,0.040
same,"Normalized average relative binding affinity (ARB), HLA B*1501",HLA B*1501,0.96
same,"Normalized average relative binding affinity (ARB), HLA B*2705",HLA B*2705,0.010
same,"Normalized average relative binding affinity (ARB), H-2 Kk",H-2 K^k,0.012
same,"Normalized average relative binding affinity (ARB), HLA A*6802",HLA A*6802,0.055
same,"Normalized average relative binding affinity (ARB), HLA B*5401",HLA B*5401,0.0072
same,"Normalized average relative binding affinity (ARB), HLA B*5801",HLA B*5801,0.0033
same,"Normalized average relative binding affinity (ARB), HLA B*1503",HLA B*1503,0.57
same,"Normalized average relative binding affinity (ARB), HLA B*5802",HLA B*5802,0.17
XNXXXXXXX [3064.0032],"Normalized average relative binding affinity (ARB), HLA A*3001",HLA A*3001,0.10
same,"Normalized average relative binding affinity (ARB), HLA B*0801",HLA B*0801,0.16
same,"Normalized average relative binding affinity (ARB), HLA B*0702",HLA B*0702,0.0028
same,"Normalized average relative binding affinity (ARB), HLA A*3201",HLA A*3201,0.025
same,"Normalized average relative binding affinity (ARB), HLA B*5101",HLA B*5101,0.022
same,"Normalized average relative binding affinity (ARB), HLA A*0201",HLA A*0201,0.0062
same,"Normalized average relative binding affinity (ARB), H-2 Db",H-2 D^b,0.11
same,"Normalized average relative binding affinity (ARB), HLA B*3501",HLA B*3501,0.0078
same,"Normalized average relative binding affinity (ARB), H-2 Dd",H-2 D^d,0.018
same,"Normalized average relative binding affinity (ARB), HLA B*5301",HLA B*5301,0.0083
same,"Normalized average relative binding affinity (ARB), HLA B*1501",HLA B*1501,0.052
same,"Normalized average relative binding affinity (ARB), HLA B*2705",HLA B*2705,0.0016
same,"Normalized average relative binding affinity (ARB), H-2 Kk",H-2 K^k,0.0053
same,"Normalized average relative binding affinity (ARB), HLA A*6802",HLA A*6802,0.034
same,"Normalized average relative binding affinity (ARB), HLA B*5401",HLA B*5401,0.0018
same,"Normalized average relative binding affinity (ARB), HLA B*5801",HLA B*5801,0.012
same,"Normalized average relative binding affinity (ARB), HLA B*1503",HLA B*1503,0.032
same,"Normalized average relative binding affinity (ARB), HLA B*5802",HLA B*5802,0.20
XPXXXXXXX [3064.0033],"Normalized average relative binding affinity (ARB), HLA A*3001",HLA A*3001,0.024
same,"Normalized average relative binding affinity (ARB), HLA B*0801",HLA B*0801,1.0
same,"Normalized average relative binding affinity (ARB), HLA B*0702",HLA B*0702,1.0
same,"Normalized average relative binding affinity (ARB), HLA A*3201",HLA A*3201,0.022
same,"Normalized average relative binding affinity (ARB), HLA B*5101",HLA B*5101,1.0
same,"Normalized average relative binding affinity (ARB), HLA A*0201",HLA A*0201,0.0034
same,"Normalized average relative binding affinity (ARB), H-2 Db",H-2 D^b,0.036
same,"Normalized average relative binding affinity (ARB), HLA B*3501",HLA B*3501,1.0
same,"Normalized average relative binding affinity (ARB), H-2 Dd",H-2 D^d,0.064
same,"Normalized average relative binding affinity (ARB), HLA B*5301",HLA B*5301,1.0
same,"Normalized average relative binding affinity (ARB), HLA B*1501",HLA B*1501,0.015
same,"Normalized average relative binding affinity (ARB), HLA B*2705",HLA B*2705,0.0016
same,"Normalized average relative binding affinity (ARB), H-2 Kk",H-2 K^k,0.017
same,"Normalized average relative binding affinity (ARB), HLA A*6802",HLA A*6802,0.041
same,"Normalized average relative binding affinity (ARB), HLA B*5401",HLA B*5401,0.19
same,"Normalized average relative binding affinity (ARB), HLA B*5801",HLA B*5801,0.014
same,"Normalized average relative binding affinity (ARB), HLA B*1503",HLA B*1503,0.031
same,"Normalized average relative binding affinity (ARB), HLA B*5802",HLA B*5802,0.051
